Results as given in article PMC4887073, “Investigating the Role of Loop C Hydrophilic Residue ‘T244’ in the Binding Site of ρ1 GABAC Receptors via Site Mutation and Partial Agonism” (PLoS ONE, 2016).
Like-named read-outs stand apart in the source and are kept apart here.

Columns and labels:
[1] = biological target: T1, ρ1 GABAC T244S mutant receptors (Homo sapiens, UniProt P24046, T265S); assay: Two-electrode voltage-clamp electrophysiology, Xenopus oocytes expressing ρ1 T244S mutant receptors; type: cell-based; conditions: for effect of T244S mutation on antagonist potency: ρ1 T244S compared to WT
T1 construct: expressed in transfected cells; host or cells: Xenopus laevis oocytes injected with cRNA
T1 sequence (P24046 22-479 T265S): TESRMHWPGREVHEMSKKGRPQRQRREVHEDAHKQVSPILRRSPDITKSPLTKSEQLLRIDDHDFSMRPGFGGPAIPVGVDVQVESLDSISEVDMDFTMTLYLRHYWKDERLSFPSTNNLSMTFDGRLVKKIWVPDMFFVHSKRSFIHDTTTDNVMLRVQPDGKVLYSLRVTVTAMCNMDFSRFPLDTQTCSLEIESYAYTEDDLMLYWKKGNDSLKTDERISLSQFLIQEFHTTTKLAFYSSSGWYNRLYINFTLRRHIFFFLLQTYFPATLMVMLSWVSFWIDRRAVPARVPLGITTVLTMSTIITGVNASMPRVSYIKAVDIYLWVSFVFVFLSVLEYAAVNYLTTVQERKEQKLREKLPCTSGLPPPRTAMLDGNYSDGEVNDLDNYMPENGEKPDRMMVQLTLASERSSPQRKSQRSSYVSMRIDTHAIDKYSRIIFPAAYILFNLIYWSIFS
Method: (§1) Pairs of the complementary mutagenic oligonucleotide primers were first designed to introduce single point mutations at human ρ1 GABAC subunit using UniProt. Primers were made by life technologies (Life Technologies^TM Australia Pty Ltd).
(§2) Site-directed mutagenesis was performed using QuikChange II site-directed mutagenesis kit as described by the manufacturer (Stratagene).
(§3) ρ1 GABAC WT and mutant plasmids DNA were linearized by incubation with Xba1. ρ1 WT and mutant cRNA were synthesized using the T7 Transcription mMESSAGE mMACHINE Kit (Ambion, Austin, TX, USA) following the procedure described by the manufacture. The quantity and quality of synthesized CRNA was determined by absorbance at 260–280 nm using Nanodrop Spectrophotometer (Thermo Scientific, Wilmington, DE, USA). The purity of synthesized cRNA was confirmed by agarose gel electrophoresis (0.9%) using the GelDoc 1000 (Bio-Rad Laboratories, Hercules, CA USA).
(§4) A microprocessor-controlled micropipette puller (PUL-100, World Precision Instruments, Inc. FL, USA) was used to make micropipettes then RNA pulled up into the micropipette by a positive-displacement using micro-injector (Nanoliter micro-injector, World Precision Instruments, Inc. FL, USA). Oocytes were sorted and healthy ones were injected with 35–50 ng of ρ cRNA unless otherwise mentioned.
(§5) The injected oocytes were incubated for between two and four days after injection with desired RNA. Two-electrode voltage clamp instrument; Geneclamp 500 amplifier (Axon Instrument, Sydney, NSW, Australia) and Chart version 5.5.6 was used to measure the various activities at the receptors expressed by these oocytes. The recording microelectrodes were prepared by pulling using PUL-100 micropipette puller (World precision Instruments, Inc. FL, USA) and filled with 3 M KCl.
(§6) Dose response curves were generated using GraphPad PRISM 5.02 (GraphPad Software San Diego, CA).
(§7) The inhibitory concentration curves were generated using GraphPad PRISM 5.02 and IC50 values were calculated using Eq 2.

[2] = biological target: T2, human ρ1 GABAC WT receptors (Homo sapiens, UniProt P24046); assay: Two-electrode voltage-clamp electrophysiology, Xenopus oocytes expressing ρ1 GABAC WT receptors; type: cell-based; conditions: for additive effect on GABA EC50 response (GABA EC50 response set to 100%): co-applied with GABA EC50; for Emax: read-out: efficacy relative to the GABA maximal response, ligand applied alone
T2 construct: expressed in transfected cells; host or cells: Xenopus laevis oocytes injected with cRNA
T2 sequence (P24046 22-479): as the sequence (P24046 22-479 T265S) above, with S244T counted along it
Method: Human ρ1 cDNA subcloned into pcDNA1.1 (Invitrogen, San Diego, CA, USA) was kindly provided by Dr. George Uh1 (National Institute for Drug Abuse, Baltimore, MD, USA).
as §3, §4, §5, §6, §7

[3] = biological target: T3, ρ1 GABAC T244A mutant receptors (Homo sapiens, UniProt P24046, T265A); assay: Two-electrode voltage-clamp electrophysiology, Xenopus oocytes expressing ρ1 T244A mutant receptors; type: cell-based
T3 construct: expressed in transfected cells; host or cells: Xenopus laevis oocytes injected with cRNA (raised to 300 ng/μl)
T3 sequence (P24046 22-479 T265A): as the sequence (P24046 22-479 T265S) above, with S244A counted along it
Method: as §1, §2, §3, §4, §5, §6

[4] = biological target: T1, ρ1 GABAC T244S mutant receptors; conditions: agonist effects eliminated; cited from earlier work
[5] = biological target: T4, ρ1 GABAC T244C mutant receptors (Homo sapiens, UniProt P24046, T265C); assay: Two-electrode voltage-clamp electrophysiology, Xenopus oocytes expressing ρ1 T244C mutant receptors; type: cell-based
T4 construct: expressed in transfected cells; host or cells: Xenopus laevis oocytes injected with cRNA (raised to 300 ng/μl)
T4 sequence (P24046 22-479 T265C): as the sequence (P24046 22-479 T265S) above, with S244C counted along it
Method: as §1, §2, §3, §4, §5
Current responses were normalized to the maximum GABA-activated current (or other ligand which is stated as required) and expressed as a percentage, which was fitted by least squares to Hill equation (Eq 1). Dose response curves were generated using GraphPad PRISM 5.02 (GraphPad Software San Diego, CA).
GABA was first tested on all mutant receptors in order to determine the functionality of these receptors.

[6] = biological target: T2, human ρ1 GABAC WT receptors; design: method as in PMID 8386310; conditions: agonist applied alone; cited from earlier work
[7] = high GABA concentrations, 300 ng/μl RNA
[8] = read-out: efficacy relative to the GABA maximal response, ρ1 T244S, ligand applied alone

## Oc1noc2c1CCNC2 [THIP, 4,5,6,7-tetrahydroisoxazolo[5,4-c]pyridin-3-ol]
[1]
  effect of T244S mutation on antagonist potency: no effect

## NCCC(=O)O [β-alanine]
[2]
  IC50: 120 µM
[2]; xenopus oocytes
  weak additive effect on GABA EC50 response: 125%
[2]; ρ1 WT, applied alone
  agonist character: weak partial agonists
[2]; ρ1 WT, concentrations greater than 100 μM
  inhibition of GABA EC50: 60%
[1]
  IC50: 1000 µM
[1]; read-out: maximum efficacy relative to the GABA maximal response at 30 mM, ρ1 T244S, ligand applied alone
  Emax: 5%
[1]; xenopus oocytes
  weak additive effect on GABA EC50 response: 115%
[1]; ρ1 T244S compared to ρ1 WT, against GABA EC50
  fold increase of IC50: 8 fold
[1]; ρ1 T244S, concentrations greater than 100 μM
  inhibition of GABA EC50: 60%
[3]; 300 ng/μl mutant RNA injected
  EC50: 1500 µM
[3]; 30 mM concentration
  efficacy compared with GABA: approximately two times more efficacious than GABA

## NCc1cc(=O)[nH]o1 [muscimol]
[3]
  efficacy compared with GABA: less efficacious than GABA
[4]
  mode of action at mutant receptors: acted only as competitive antagonists

## NCC(=O)O [glycine]
[2]; ρ1 WT, applied alone
  agonist character: weak partial agonists
[2]; ρ1 WT, at mM concentrations, applied alone
  direct activation of receptors: 25%
[2]; ρ1 WT
  additive effect on GABA EC50 response (GABA EC50 response set to 100%): 180%
[1]; ρ1 T244S, at mM concentrations, applied alone
  direct activation of receptors: 2%
[1]; ρ1 T244S, co-applied with GABA EC50
  additive effect on GABA EC50 response (GABA EC50 response set to 100%): 145%
[1]; ρ1 T244S, ligand applied alone
  maximum efficacy relative to the GABA maximal response at 30 mM: 8%
[3]
  efficacy compared with GABA: less efficacious than GABA

## O=C(O)Cc1c[nH]cn1 [imidazole-4-acetic acid]
[4]
  mode of action at mutant receptors: acted only as competitive antagonists

## CP(=O)(O)C1=CCNCC1 [TPMPA]
[2]; ρ1 WT
  IC50: 2.3 µM
[1]
  effect of T244S mutation on antagonist potency: no effect
[3]
  effect when applied alone: no effect
[3]; 1 mM against β-alanine response (30 mM)
  effect on β-alanine response: weakly antagonizes

## NCCCC(=O)O [GABA, γ-aminobutyric acid]
[3]; 30 mM co-applied with 30 mM β-alanine
  effect on β-alanine response: moderately inhibits
[3]; GABA 30mM, 50–100 ng/μl RNA
  sensitivity of receptors to GABA: non-functional or insensitive
[3]; [7]
  sensitivity of receptors to GABA: weakly responsive
[5]; 30 mM, five times the RNA normally injected
  response: very weak response
[5]; GABA 30mM, 50–100 ng/μl RNA
  sensitivity of receptors to GABA: non-functional or insensitive
[5]; [7]
  sensitivity of receptors to GABA: weakly responsive

## NC/C=C\C(=O)O [CACA]
[2]; agonist applied alone, ρ1 WT
  EC50: 95 µM
[2]; ρ1 WT
  Emax: 60%
[2]; ρ1 WT, co-applied with GABA EC50, at 100 μM ligand
  additive effect, % of GABA EC50 efficacy: 150%
[1]; [8]
  Emax: 2%
[1]; ρ1 T244S, 300 μM applied alone
  magnitude of response, % of GABA IMAX: less than 2%
[1]; ρ1 T244S, applied alone, minimal response at 300 μM
  agonist activity: almost inactive
[1]; ρ1 T244S, co-applied with GABA EC50, at 100 μM ligand
  enhancement of the GABA EC50 effect: ~20%

## O=C(O)C1=CCNCC1 [isoguvacine]
[2]; ρ1 WT
  Emax: 45%
  additive effect on GABA EC50 response (GABA EC50 response set to 100%): 135%
[1]
  IC50: 25.3 µM
[6]
  EC50: 200 µM

## CS(=O)(=O)SCCN [MTSEA, 2-aminoethylmethane thiosulfonate]
[2]; ρ1 WT, applied alone
  activation: very weak efficacy and potency
[2]; ρ1 WT, co-applied with GABA EC50, concentrations below 100 μM
  effect on GABA EC50 response: weak additive effects
[2]; ρ1 WT, co-applied with GABA EC50, concentrations of 100 μM and above
  effect on GABA EC50 response: weakly antagonizes
[5]; reversible responses
  potency and efficacy compared with GABA: greater potency and efficacy than GABA

## NCCCCC(=O)O [5-aminovaleric acid]
[2]
  IC50: 37 µM
[2]; ρ1 WT, applied alone
  agonist character: weak partial agonists
[1]
  IC50: 17 µM
[3]
  efficacy compared with GABA: less efficacious than GABA

## NC/C=C/C(=O)O [TACA, trans-aminocrotonic acid]
[2]; ρ1 WT
  Emax: 95%
[1]; agonist applied alone, ρ1 T244S
  EC50: 14 µM
[1]; [8]
  Emax: 110%
[1]; ρ1 T244S compared to ρ1 WT
  fold decrease in potency/activity: 25 fold
[3]
  efficacy compared with GABA: less efficacious than GABA
